Patent US10166214B2, “Somatostatin receptor subtype 4 (SSTR4) agonists” (Centrexion Therapeutics Corporation, priority 2013, dated 2019)
pEC50, pKi: −log10 of the molar value.

biological target: human Somatostatin 4 receptor (SSTR4) (Homo sapiens (Human), UniProt P31391); assay: cAMP assay with human somatostatin 4 receptor (hSSTR4 expressing H4 cells); format: cell-based; details: read-out: SSTR4 agonism EC50
Experimental: Method Description for cAMP Assay with Human Somatostatin 4 Receptor
The activation of the SSTR4 receptor (Gi coupled) causes an inhibition of intracellular cAMP after stimulation with Forskolin, which can be quantifiable by use of a suitable assay Kit and an adequate plate reader. This technique is used to characterize pharmacological effects of the SSTR4 receptor agonists by use of hSSTR4 expressing H4 cells.
Compounds are dissolved and diluted in DMSO. The final test solution contains 1% DMSO. […] Cells are centrifuged and suspended in assay buffer (incl. 1:100 diluted Alexa antibody).
For the assay 5 μl of a cell suspension (approximately 5000 cells/well)—incl. Alexa antibody (diluted 1:100) are added into a 384 well MTP microtitre plate excepting one row or column (depending on the plate layout), which is reserved for the standard curve. Then 2 μl of compound sample is added as concentration response curve (e.g. 1e-5 M to 6e-10 M), usually in triplicates. Each assay contains incubations with vehicle controls instead of compound as controls for non-inhibited cAMP generation (100% CTL; ‘high values’) and incubations with 1 μM Somatosatin as controls for full inhibition and background (0% CTL; ‘low values’). […] Then the plates are shaken briefly and incubated for 60 min at room temperature. After 60 min 10 μl of the detection mix is added into all wells followed by an additional incubation period of 1 h. The plates are read in a suitable plate reader.
From this ratio, cAMP concentrations are calculated from standard curve and the EC50 is estimated by least square curve fit program.

Chain of human Somatostatin 4 receptor (SSTR4) (P31391 whole entry): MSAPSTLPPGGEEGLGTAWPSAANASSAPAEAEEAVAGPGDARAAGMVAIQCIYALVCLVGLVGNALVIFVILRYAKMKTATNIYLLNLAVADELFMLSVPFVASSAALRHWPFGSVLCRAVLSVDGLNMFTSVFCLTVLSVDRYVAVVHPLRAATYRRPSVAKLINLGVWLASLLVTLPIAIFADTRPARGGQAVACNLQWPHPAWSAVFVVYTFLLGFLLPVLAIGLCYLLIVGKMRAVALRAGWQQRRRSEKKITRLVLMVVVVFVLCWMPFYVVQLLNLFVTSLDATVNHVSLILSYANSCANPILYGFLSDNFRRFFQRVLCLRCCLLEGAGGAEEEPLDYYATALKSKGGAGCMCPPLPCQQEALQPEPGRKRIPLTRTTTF

pEC50	Structure (SMILES)
6.27	O=C(NC1CCCCC1c1ccccc1)[C@H]1[C@@H]2CNC[C@@H]21 (stereo partly drawn) [Example 9]
10.00	Cc1cccc2c(C(C)(C)NC(=O)[C@H]3[C@@H]4CNC[C@@H]43)n[nH]c12 [Example 93]
8.80	CC(C)(NC(=O)[C@H]1[C@@H]2CNC[C@@H]21)c1n[nH]c2ccccc12 [Example 94]
9.15	CC(C)(NC(=O)[C@H]1[C@@H]2CNC[C@@H]21)c1n[nH]c2c(C(F)(F)F)cccc12 [Example 110]

Structure (SMILES)	pEC50
Cc1cccn2c(C(C)(C)NC(=O)[C@H]3[C@@H]4CNC[C@@H]43)nc(C)c12.Cl [Example 130]	9.52

biological target: human SSTR4 (Homo sapiens (Human), UniProt P31391); assay: Radioligand binding assay, CHO cell membranes expressing recombinant human SSTR4; details: [3-125I-Tyr]-Somatostatin-(1-14)
Experimental: Receptor binding assays refer to a technique in which labeled receptor ligands are used to detect binding to a receptor. In competition experiments test compounds, which are not labeled, compete with the binding side of a labeled ligand. The displacement of the labeled ligand by the test compound leads to a decreased signal.
For the binding experiments 200 μL of membrane homogenate from one of the following protein amounts is used: hSSTR1 (40 μg/well); hSSTR2 (25 μg/well); hSSTR3 (1.5 μg/well); hSSTR4 (0.5 μg/well); hSSTR5 (25 μg/well). […] The protein-bound radioactivity is measured in a suitable reader. The non-specific binding is defined as radioactivity bound in the presence of 1 μM Somatostatin-14 during the incubation period.
The analysis of the concentration-binding curves is performed by computer-assisted nonlinear least square curve fitting method using the model of one receptor binding site.

Chain of human SSTR4 (P31391 whole entry): as above

pKi	Structure (SMILES)
8.44	Cc1cccc2c(C(C)(C)NC(=O)[C@H]3[C@@H]4CNC[C@@H]43)n[nH]c12 [Example 93]

tested on: not listed separately; assay: Metabolic stability in pooled human liver microsomes (half-life); format: in vitro ADME; details: 37° C., 1 μM test compound
Experimental: The metabolic stability of the compounds according to the invention may be investigated as follows:
The metabolic degradation of the test compound is assayed at 37° C. with pooled human liver microsomes. The final incubation volume of 100 μl per time point contains TRIS buffer pH 7.6 at room temperature (0.1 M), magnesium chloride (5 mM), microsomal protein (1 mg/mL) and the test compound at a final concentration of 1 μM. Following a short preincubation period at 37° C., the reactions are initiated by addition of beta-nicotinamide adenine dinucleotide phosphate, reduced form (NADPH, 1 mM), and terminated by transferring an aliquot into solvent after different time points. After centrifugation (10000 g, 5 min), an aliquot of the supernatant is assayed by LC-MS/MS for the amount of parent compound. The half-life is determined by the slope of the semi-logarithmic plot of the concentration-time profile.

Structure (SMILES)	Half-life t1/2 [h]
CC(C)(COc1cccnc1C(F)(F)F)NC(=O)[C@H]1[C@@H]2CNC[C@@H]21.Cl [Example 18]	>2.17
CC(C)(NC(=O)[C@H]1[C@@H]2CNC[C@@H]21)c1cnc2ccccn12.Cl [Example 20]	>2.17
CC(C)(NC(=O)[C@H]1[C@@H]2CNC[C@@H]21)c1ccnc2ccccc12.Cl [Example 21]	>2.17
Cc1cc2ccccc2c(C(C)(C)NC(=O)[C@H]2[C@@H]3CNC[C@@H]32)n1.Cl [Example 22]	>2.17
CC(C)(NC(=O)[C@H]1[C@@H]2CNC[C@@H]21)c1ncccc1C(F)(F)F.Cl [Example 23]	>2.17
CC(C)(NC(=O)[C@H]1[C@@H]2CNC[C@@H]21)c1nccc2ccccc12.Cl [Example 24]	>2.17
Cc1cccnc1C(C)(C)NC(=O)[C@H]1[C@@H]2CNC[C@@H]21.Cl.Cl [Example 25]	>2.17
CCc1ccccc1OCC(C)(C)NC(=O)[C@H]1[C@@H]2CNC[C@@H]21 [Example 39]	>2.17
Cc1ncccc1OCC(C)(C)NC(=O)[C@H]1[C@@H]2CNC[C@@H]21.Cl [Example 44]	>2.17
Cc1ccnnc1OCC(C)(C)NC(=O)[C@H]1[C@@H]2CNC[C@@H]21.Cl [Example 67]	>2.17
CC(C)(NC(=O)[C@H]1[C@@H]2CNC[C@@H]21)c1ncc2ccccn12.Cl [Example 68]	>2.17
CC(C)(NC(=O)[C@H]1[C@@H]2CNC[C@@H]21)c1noc2c(F)cccc12 [Example 101]	>2.17
CC(C)(NC(=O)[C@H]1[C@@H]2CNC[C@@H]21)c1nc(C2CC2)c2ccccn12.Cl [Example 120]	>2.17
Cc1cccn2c(C(C)(C)NC(=O)[C@H]3[C@@H]4CNC[C@@H]43)ncc12.Cl [Example 126]	>2.17
CC(C)(NC(=O)[C@H]1[C@@H]2CNC[C@@H]21)c1ncc2c(F)cccn12.Cl [Example 133]	>2.17
Cc1nc(C(C)(C)NC(=O)[C@H]2[C@@H]3CNC[C@@H]32)c2ccccc2n1 [Example 138]	>2.17

same assay, conditions: pH 7.6, 37° C., 1 μM test compound, read-out: Half-life t1/2

half-life at 1 μM [h]	Structure (SMILES)
> 2.17	Cc1cc(C2CC2)ccc1OCC(C)(C)NC(=O)[C@H]1[C@@H]2CNC[C@@H]21 [Example 65]
> 2.17	Cc1cccc2c(C(C)(C)NC(=O)[C@H]3[C@@H]4CNC[C@@H]43)n[nH]c12 [Example 93]
> 2.17	CC(C)(NC(=O)[C@H]1[C@@H]2CNC[C@@H]21)c1n[nH]c2ccccc12 [Example 94]
> 2.17	CC(C)(NC(=O)[C@H]1[C@@H]2CNC[C@@H]21)c1n[nH]c2c(C(F)(F)F)cccc12 [Example 110]

Structure (SMILES)	half-life at 1 μM [h]
Cc1cccn2c(C(C)(C)NC(=O)[C@H]3[C@@H]4CNC[C@@H]43)nc(C)c12.Cl [Example 130]	> 2.17
